Experimental data: the supplement of paper PMC10307832

Tests used:
Test in all cases: relative viability (nuclei count vs DMSO), 5 days (fraction); higher = more cells survive
Entinostat + Lapatinib = compound: Nc1ccccc1NC(=O)c1ccc(CNC(=O)OCc2cccnc2)cc1 [Entinostat] + CS(=O)(=O)CCNCc1ccc(-c2ccc3ncnc(Nc4ccc(OCc5cccc(F)c5)c(Cl)c4)c3c2)o1 [Lapatinib] (partner 2 µM)
In short: (§1)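 One day after seeding in 1536-well plates, lung cancer cell lines were dosed by pin tool. Dosing was either single-drug or a fixed anchor-drug dose plus five library-drug doses (not always all listed) in √10 steps. After 5 days, nuclei were stained in one fix-and-stain step and counted on 4× images, and relative viability is the nuclei count of treated wells over that of vehicle wells, given as the median of duplicate plates.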

[1] = compound: C1COCCN1C2=NC(=NC3=C2OC4=C3C=CC=N4)C5=CC(=CC=C5)NC(=O)C6=CN=C(C=C6)N + Cc1nc(NC(=O)N2CCC[C@H]2C(N)=O)sc1-c1ccnc(C(C)(C)C(F)(F)F)c1 [Alpelisib] (partner 2 µM)
In short: as §1

SGI-1776 + Olaparib = compound: CN1CCC(CNc2ccc3ncc(-c4cccc(OC(F)(F)F)c4)n3n2)CC1 [SGI-1776] + O=C(c1cc(Cc2n[nH]c(=O)c3ccccc23)ccc1F)N1CCN(C(=O)C2CC2)CC1 [Olaparib] (partner 8 µM)
In short: as §1

SGI-1776 + Trametinib = compound: CN1CCC(CNc2ccc3ncc(-c4cccc(OC(F)(F)F)c4)n3n2)CC1 [SGI-1776] + CC(=O)Nc1cccc(-n2c(=O)n(C3CC3)c(=O)c3c(Nc4ccc(I)cc4F)n(C)c(=O)c(C)c32)c1 [Trametinib] (partner 0.02 µM)
In short: as §1

Cell Line	relative viability (Entinostat + Lapatinib; first compound 0.02 µM)	relative viability (Entinostat + Lapatinib; first compound 0.06325 µM)	relative viability (Entinostat + Lapatinib; first compound 0.2 µM)	relative viability (Entinostat + Lapatinib; first compound 0.6325 µM)	relative viability (Entinostat + Lapatinib; first compound 2 µM)	relative viability ([1]; first compound 0.02 µM)	relative viability ([1]; first compound 0.06325 µM)	relative viability ([1]; first compound 0.2 µM)	relative viability ([1]; first compound 0.6325 µM)	relative viability ([1]; first compound 2 µM)	relative viability (SGI-1776 + Olaparib; first compound 0.08 µM)	relative viability (SGI-1776 + Olaparib; first compound 0.8 µM)	relative viability (SGI-1776 + Olaparib; first compound 2.53 µM)	relative viability (SGI-1776 + Olaparib; first compound 8 µM)	relative viability (SGI-1776 + Trametinib; first compound 0.08 µM)	relative viability (SGI-1776 + Trametinib; first compound 0.8 µM)	relative viability (SGI-1776 + Trametinib; first compound 2.53 µM)	relative viability (SGI-1776 + Trametinib; first compound 8 µM)
NCI-H2405	1.16	1.42	1.08	1.04	0.625	0.664	0.716	0.803	0.815	0.622	0.828	0.879	0.789	0.712	0.679	0.595	0.568	0.398
NCI-H3122	1.02	1.07	1.09	0.917	0.893	0.808	0.798	0.681	0.772	0.676	0.688	0.697	0.62	0.647	0.238	0.19	0.274	0.244
PC-3 [JPC-3]	0.448	0.451	0.397	0.348	0.302	0.976	1.05	1.1	0.991	0.829	1.13	1.14	1.11	0.797	0.757	0.73	0.656	0.462
PC-14	0.293	0.29	0.146	0.151	0.105	0.881	1.21	0.917	0.916	0.577	0.285	0.367	0.305	0.114	0.796	0.582	0.384	0.0529
RERF-LC-KJ	0.775	0.794	0.816	0.476	0.321	0.809	0.946	0.828	0.861	0.616	0.866	0.92	0.802	0.586	0.917	0.843	0.722	0.707
SK-LU-1	0.825	0.775	0.55	0.573	0.516	0.956	1.04	0.879	0.749	0.473	0.514	0.5	0.452	0.5	0.557	0.541	0.533	0.408
SK-MES-1	0.511	0.525	0.494	0.488	0.395	0.949	1.07	0.984	0.971	0.724	0.772	0.744	0.664	0.347	0.546	0.521	0.494	0.324
SW 1573	1.42	1.23	1.19	1.29	0.949	0.659	0.912	0.734	0.699	0.576	0.381	0.428	0.475	0.297	0.525	0.444	0.463	0.305
